Assay: in vitro
Details: human, hela cells

SMILES	viability at 28.5 h, 10 µM
CS(=O)(=O)c1ccc(-c2ccc3c(c2)OCCN(C2CCN(C(=O)Oc4ccccc4)CC2)C3)cc1 [CBK169259]	79.9%
CS(=O)(=O)c1ccc(-c2ccc3c(c2)CCN(C2CCN(C(=O)Oc4ccccc4)CC2)C3)cc1 [CBK169518]	90.1%

Same assay, conditions: human, hela cells, % viability

SMILES	viability at 28.5 h, 10 µM
CCc1ccc2c(c1)C(=O)CC1(CCN(C(=O)c3cc(OC)c(C)c(OC)c3)CC1)O2 [CBK168098]	112%
COc1cc(C(=O)N2CCCC3(CC(=O)c4ccc(C)cc4O3)C2)cc(OC)c1C (stereo not drawn) [CBK168239]	87.2%
COc1cc(C(=O)N2CCC3(CC2)CC(=O)c2cc(C)ccc2O3)cc(-c2ccc(OC)c(OC)c2)c1 [CBK168271]	88.9%
COc1cc(C(=O)N2CCC3(CC2)CC(=O)c2ccc(C)cc2O3)cc(-c2ccc(OC)c(OC)c2)c1 [CBK168282]	89.5%
NC1CCN(C(=O)c2cn(C3CC3)c3cc(Cl)c(F)cc3c2=O)CC1 [CBK168626]	93.3%
O/N=C/c1c[nH]c2ccccc12 [CBK168630]	102%
CCOc1cc(OCC)cc(C(=O)N2CCC3(CC2)CC(=O)c2cc(OCCN(C)C)ccc2O3)c1 [CBK169003T]	89.3%
COc1cc(OC)cc(C(=O)N2CCC3(CC2)CC(=O)c2ccc(OCCN(C)C)cc2O3)c1 [CBK169008T]	92.8%
COc1cc(C(=O)N2CCC3(CC2)CC(=O)c2ccc(-c4ccccc4)cc2O3)cc(OC)c1C [CBK169037]	89.9%
COc1cc(C(=O)N2CCC3(CC2)CC(=O)c2cc(CN4CCOCC4)ccc2O3)cc(OC)c1C [CBK169182]	109%
COc1cc(C(=O)N2CCC3(CC2)CC(=O)c2cc(CN4CCN(C)CC4)ccc2O3)cc(OC)c1C [CBK169185]	94.6%
O=C(CCCC1CCNCC1)Nc1nnc(C2CC2)s1 [CBK169224]	97.1%
CS(=O)(=O)c1ccc(-c2ccc3c(c2)OCCN(C2CCN(C(=O)CC(F)(F)F)CC2)C3)cc1 [CBK169260]	90.8%
CS(=O)(=O)c1ccc(-c2ccc3c(c2)CN(C2CCN(C(=O)c4ccccc4)CC2)CCO3)cc1 [CBK169265]	103%
Cc1nc2c(C(=O)NCCNC(=O)c3cccnc3)ncn2c(C)c1Cc1ccc(F)c(Cl)c1 [CBK169332]	89.8%
CN(C)CCOc1ccc2c(c1)OC1(CCN(C(=O)c3ccc4sc(N)nc4c3)CC1)CC2=O [CBK169380]	91.4%
COc1ccc(-c2ccc3c(c2)OC2(CCN(C(=O)c4cc(OC)c(C)c(OC)c4)CC2)CC3=O)cn1 [CBK169424]	107%
O=C1CC2(CCN(C(=O)c3ccc4cc[nH]c4c3)CC2)Oc2ccc(CN3CCOCC3)cc21 [CBK169469]	121%
Cc1cc(N2CCCN3CCCCCC32)nc(N)n1 (stereo not drawn) [CBK169746]	102%
CC(C)(C)OC(=O)NCc1ccc(-c2nnc(CC(=O)O)o2)cc1 [CBK169899D]	96.5%
CNC1CCN(S(=O)(=O)c2sc3ccc(C(C)C)cc3c2C)C1 (stereo not drawn) [CBK170067]	110%

SMILES	viability at 28.5 h, 10 µM
COC(=O)c1ccc(-c2cnc(OCC3CCN(C(=O)OC(C)(C)C)CC3)nc2)nc1 [CBK170130]	101%
Cc1cc(NC2CC3CCCC(C2)N3C)nc(N)n1 (stereo not drawn) [CBK170333]	88.4%
Cc1c(S(=O)(=O)N2CCN(C3CCN(C)CC3)CC2)sc2ccc(C(C)C)cc12 [CBK170352]	105%
Cc1cc(CNS(=O)(=O)c2sc3ccc(C(C)C)cc3c2C)no1 [CBK170353]	109%
Cc1c(S(=O)(=O)NCCN(C)C)sc2ccc(C(C)C)cc12 [CBK170357]	90.2%
Cc1cc(NC(=O)C(C)OC(=O)C(NC(=O)OC(C)(C)C)c2ccccc2)no1 (stereo not drawn) [CBK170398]	100%
COc1cc(C(=O)N2CCC3(CC2)CC(=O)c2cc(-c4ccc(N(C)C)cc4)ccc2O3)cc(OC)c1C [CBK170663]	108%
COc1cc(C(=O)N2CCC3(CC2)CC(=O)c2cc(NC(C)=O)ccc2O3)nc2c(OC)cccc12 [CBK170664]	122%
O=C(OCc1ccccc1)N1CCC(C(=O)N(CCc2ccccc2)Cc2ccccc2)CC1 [CBK171978]	92.5%
CCC(CC)C(=O)N1CCC(CNc2cnc(-c3ccc(S(C)(=O)=O)cc3)cn2)CC1 [CBK172021]	99.5%
CN(C)[C@H]1CCN(C(=O)c2ccc(Nc3cncc(Cl)n3)cn2)C1 [CBK172073]	88.8%
Fc1ccc2c(c1)[C@@H](Oc1cncc(NC3CCCNC3)n1)CCO2 (stereo partly drawn) [CBK172256G]	92.6%
Cc1cccc2c1OCC[C@@H]2Oc1cncc(N2CCNCC2)n1 [CBK172310G]	101%
C[C@H](Oc1cncc(N2CCNCC2)n1)c1ccccc1Cl [CBK172341G]	108%
O=S1(=O)Cc2ccccc2C(Oc2cncc(N3CCNCC3)n2)C1 (stereo not drawn) [CBK172344T]	91.2%
c1ccc2c(c1)CSCC2Oc1cncc(N2CCNCC2)n1 (stereo not drawn) [CBK172356T]	94.9%
c1ccc2c(c1)OCC(COc1cncc(N3CCNCC3)n1)O2 (stereo not drawn) [CBK172357G]	101%
Cc1ccc(S(=O)(=O)Nc2ccc3c(ccn3CCOC3CCN(C(=O)OC(C)(C)C)CC3)c2)cc1Cl [CBK172991]	99%
O=C(c1ccc(-c2ccc(OCC3CCN(c4ncccn4)CC3)cn2)cc1)N1CCOCC1 [CBK173183]	91.8%
COc1ccccc1-c1nc2ccccn2c1CO [CBK173210]	113%
CCN(CC)C(=O)CCNC(=O)c1ccc2c(c1)COC(C1CCN(C(=O)OC(C)(C)C)CC1)O2 (stereo not drawn) [CBK173273]	92.2%

SMILES	viability at 28.5 h, 10 µM
CC(C)(C)OC(=O)N1CCC(C2OCc3cc(-c4ccc(S(C)(=O)=O)cn4)ccc3O2)CC1 (stereo not drawn) [CBK173326]	87.6%
CN(Cc1ccc(-c2ccc(CO)cc2)nc1)C1CCN(C(=O)OC(C)(C)C)CC1 [CBK173453]	81.3%
Cn1cc(-c2ccc(OCC3CCN(C(=O)OC(C)(C)C)CC3)cn2)cn1 [CBK173498]	77.8%
C[S+]([O-])c1ccc(-c2cnc(NCC3CCN(C(=O)OC(C)(C)C)CC3)cn2)cc1 (stereo not drawn) [CBK173723]	83.4%
CCCNCCc1ccc(NC(=O)Nc2cc(F)cc3c2OCOC3)cc1 [CBK173887T]	97.8%
Cc1cc(COc2nc3ccccc3nc2NC[C@@H]2CCCO2)no1 [CBK174027]	119%
O=C(Nc1ccc(Cl)cc1)NC1(C(=O)NCc2ccncc2)CCCCC1 [CBK174259]	100%
CC(C)(C)OC(=O)N1CCC(NC(=O)c2ccc(-c3ccc(S(C)(=O)=O)cc3)cn2)CC1 [CBK174352]	84.8%
CCN1CCN(c2ccc(-c3ccc(OCC4CCN(C(=O)OC(C)(C)C)CC4)cn3)cn2)CC1 [CBK174505]	109%
COCc1cc(-c2ccc(C(=O)N3CCN(C)CC3)nc2)ccc1OCC1CCN(C(=O)OC(C)(C)C)CC1 [CBK174511]	84%
O=C(NC1CCOCC1)c1n[nH]c2c1CCC2 [CBK174626]	113%
CCN1CCC[C@@H]1CNC(=O)c1n[nH]c2c1CCC2 [CBK174628]	106%
COc1cccc(NC(=O)c2ccnc(Cl)c2)c1 [CBK174661]	104%
COc1cccc(NC(=O)c2ccncc2Cl)c1 [CBK174695]	96.3%
Cc1cc(OCC2CCN(C(=O)OC(C)(C)C)CC2)ccc1Br [CBK175091]	108%
CCOC(=O)c1cn[nH]c1N [CBK175217]	89.4%
CCNC(=O)Nc1ccccc1C(=O)NC1CCCCC1 [CBK175266]	89.6%
Cc1csc(NC(=O)C2CC(=O)N(C3CCCC3)C2)n1 (stereo not drawn) [CBK175501]	107%
Cc1cnc(NC(=O)C2CC(=O)N(Cc3cccs3)C2)s1 (stereo not drawn) [CBK175531]	90.9%
CC(C)(C)c1csc(NC(=O)C2CC(=O)N(C3CCCC3)C2)n1 (stereo not drawn) [CBK175544]	105%
O=C(Nc1ncc(Cl)s1)C1CC(=O)N(C2CC2)C1 (stereo not drawn) [CBK175551]	102%

SMILES	viability at 28.5 h, 10 µM
COCc1ccc(Nc2ccccc2S(=O)(=O)c2ccccc2)cc1OCC1CCN(C(=O)OC(C)(C)C)CC1 [CBK175577]	94.6%
Cn1c(COc2cncc(Cl)n2)cc2ccccc21 [CBK176002]	89.9%
Clc1cncc(OCCc2c[nH]c3ccccc23)n1 [CBK176027]	65.2%
Clc1ccc(OCCOc2ccccc2)nn1 [CBK176034]	86.7%
O=C(CSc1ccc2ccccc2n1)Nc1ccnc2ccccc12 [CBK176848]	78.1%
COc1ncccc1-c1cccnc1-n1ccnc1 [CBK176872]	92.6%
CSc1cccc(-c2cnccc2-n2ccnc2)c1 [CBK177155]	92.5%
COc1cccc(COc2cncc(N3CCNCC3)n2)c1OC [CBK200003]	98.6%
CN(C)c1cccc(COc2cncc(N3CCNCC3)n2)c1 [CBK200004]	82.1%
COc1cccc(OCCOc2nsnc2N2CCNCC2)c1 [CBK200007]	110%
Cc1ccc(S(=O)(=O)N(C)c2ccnc(N3CCNCC3)n2)cc1 [CBK200009]	107%
CCN1CCN(c2ccc(NS(=O)(=O)c3ccccc3)c3ccccc23)CC1 [CBK200011C]	88.3%
COc1ccccc1NS(=O)(=O)c1ccc(N2C[C@@H](C)N[C@@H](C)C2)c2ccccc12 [CBK200012C]	85.3%
CN1CCN(c2nc(NS(=O)(=O)c3cccc(C(F)(F)F)c3)cc3ccccc23)CC1 [CBK200013C]	98.6%
O=S(=O)(Nc1ccc(N2CCNCC2)c2ccccc12)c1ccc(Br)cc1F [CBK200014C]	95.4%
O=S(=O)(c1ccc(C(F)(F)F)cc1)c1ccc2nccc(N3CCNCC3)c2c1 [CBK200016C]	91.2%
CN1CCN(c2ccc3ccn(S(=O)(=O)c4ccccc4Br)c3n2)CC1 [CBK200019C]	92.5%
O=S(=O)(Nc1cc(O[C@@H]2CCNC2)c2occc2c1)c1ccccc1Br [CBK200020C]	89.6%
O=S(=O)(c1ccccc1)c1cn2ccnc2c(N2CCNCC2)n1 [CBK200021T]	98.3%
